# Read-outs that look alike come from different tables or passages of the source.
# Experiments:
# [1] = Penetration study with the enhancer applied directly to the skin (preincubation), Franz cells, radiolabeled markers from W/O formulation 1
# Experimental: The aim of the present study was to determine the potency of three test substances (one being the closest prior art penetration enhancer) to act as skin permeation enhancer in cosmetic formulations: • Dimethyl isosorbide (DMI) a well-known penetration enhancer—used in cosmetics • Penetration Enhancer 1 (PE1)—capryloyl alanine ethylester • Penetration Enhancer 2 (PE2)—closest prior art molecule dodecyloyl alanine ethylester
# The tests were performed by an independent test institute specialized in penetration testing. […] The skin was pre-incubated with the selected penetration enhancers (DMI, PE1 and PE2) and after incubation time of 30 min formulation was removed from the skin surface and formulation 1 spiked with radiolabeled ^3H-caffeine or ^3H-Vitamin E acetate was applied.
# The impact of the three penetration enhancers on the skin absorption rate of caffeine and Vitamin E acetate (representative hydrophilic and lipophilic cosmetic actives, respectively) incorporated into a w/o formulation was investigated. Radiolabeled caffeine and Vitamin E acetate were used as markers. The in vitro skin permeation studies were performed with dermatomized human skin (approximately 500 μm in thickness) over a period of 24 h in triplicate. Samples from the acceptor compartment were taken at four sampling times (1, 3, 6 and 24 h) to screen the permeation enhancement effect.
# The transdermal absorption of the test compounds ^3H-caffeine and ^3H-Vitamin E acetate was monitored by measuring the amount of radio labeled substances in the acceptor medium.
# The test compounds were quantified by liquid scintillation counting.
# In accordance to the SCCP Guidelines of the European Commission the excised human skin from surgery is an appropriate in vitro test system to simulate the permeation and penetration processes of a compound into and across human skin under in vivo conditions.
# For the penetration study, the human skin (female abdomen skin) of one donor which was dermatomized to a thickness of 500±100 μm was used and tests were conducted in triplicate. Full-thickness skin was prepared from the skin biopsies and stored at −20° C. […] The skin was used immediately after thawing. Repeated freeze-thaw cycles were avoided.
# Formulation 1 (without penetration enhancer) was spiked with radiolabeled ^3H-caffeine (specific activity: 60 Ci/mmol) and ^3H-Vitamin E acetate (specific activity: 50 Ci/mmol) and applied as control directly to the skin. The radio labeled samples were prepared as follows: Formulation 1 was spiked with either radiolabeled ^3H-caffeine or ^3H-Vitamin E acetate resulting in 2960000 cpm/50 μl or 1264557 cpm/50 μl, respectively. One of the three different penetration enhancers (DMI, PE1 and PE2) was applied to the skin prior to the application of the radioactively spiked W/O-formulation.
# Krebs Ringer buffer (KRB, pH=7.4) was prepared according to an internal standard operation procedure. KRB was used as the acceptor medium for ^3H-caffeine. For ^3H-Vitamin E acetate, KRB supplemented with 2% bovine serum albumin (BSA) was used as the acceptor medium. Solutions of ^3H-caffeine and ^3H-Vitamin E acetate were used to validate the detection method and to assess linearity.
# (§1) Permeation study was performed in four fold determination with the test and the reference item at human skin. For the transport studies the dermatomized skin was cut with a punch of 24 mm diameter and the thickness of the skin was measured at five points for each sample. Subsequently the skin pieces were fastened on cylindrical glass Franz cells which are employed as diffusion chambers. The lower (acceptor) chamber has a volume of approximately 12 ml, while the volume of the upper (donor) chamber is variable. The skin was inserted with the dermal layer facing downwards so that the skin's corneous layer is uppermost.
# [2] = Penetration study with 5% enhancer incorporated into W/O formulation
# Experimental: as §1
# PE2 (C12) which is solid at room temperature, was gently melted in a water bath (at 35 to 40° C.) and applied as liquid. After 30 min of incubation the liquid penetration enhancers were gently removed with cotton balls. In the case of PE2 which solidified on the skin, the solid film was removed with a pincer. Thereafter 50 μl of the formulations were applied at the surface of the skin. The acceptor medium was thermostated at 32° C. and continuously stirred at a rate of 400 rpm. The diffusion area of skin was approximately 1.8 cm^2. Permeation through the skin into the acceptor medium was monitored over a period of 24 hours. The acceptor medium was sampled at 4 different time points, after 1, 3, 6 and 24 hours, by withdrawing samples of 200 μl. After withdrawing a sample volume, the acceptor medium was refilled with pre-warmed KRB/KRB+2% BSA. The concentration of active ingredients in the acceptor chamber was corrected to take the dilution introduced by sampling into account. Taken samples were mixed with 210 μl or 500 μl of scintillation cocktail for at least 1 hour at 200 rpm and radioactivity measured by scintillation counting.
# The described study was partly repeated in a similar experimental setup with three test substances to act as skin permeation enhancer when incorporated into the cosmetic formulation and not applied directly to the skin: • Dimethyl isosorbide (DMI) a well-known penetration enhancer—used in cosmetics • Penetration Enhancer 1 (PE1)—capryloyl alanine ethylester • Penetration Enhancer 2 (DGME)—prior art penetration enhancer Transcutol (Gattefossee), diethylene glycol mono ethyl ether
# Formulation 1 (W/O formulation) served as a basic formulation and as a reference without any penetration enhancer. This time the skin was not pre-incubated with the selected penetration enhancers (DMI, PE1 and DGME), but 5% of the respective penetration enhancer was incorporated into formulation 1 and the resulting formulations were spiked once again with radiolabeled ^3H-caffeine or ^3H-Vitamin E acetate.
# [3] = Penetration of the penetration enhancer itself through the skin; assay type: in vitro ADME
# Source text: Furthermore, capryloyl-alanine ethylester can be metabolized in the skin thereby contributing to an improved toxicological profile.
# [4] = Hansen Solubility Parameters (HSP) distance to the stratum corneum; assay type: physicochemical
# Source text: Capryloyl alanine ethyl ester turned out to have a smaller Hansen Solubility Parameters (HSP) distance to the stratum corneum than well-known and established references like DMI and ethyldiethylenglycol which indicates a good potential as skin penetration enhancer. Hansen Solubility Parameters are a key indicator for good partitioning into the stratum corneum provided the molecule is liquid at RT and has a small enough molecular volume.
# [5] = after 24 hours, skin pre-incubated 30 min with 20 μl enhancer, then W/O formulation 1 with 3H-caffeine, n = 3
# [6] = after 24 hours, versus reference without enhancer, preincubation, n = 3
# [7] = at 24 hours, skin pre-incubated 30 min with 20 μl enhancer, then W/O formulation 1 with 3H-Vitamin E acetate, n = 3
# [8] = at 24 hours, versus reference without enhancer, preincubation, n = 3
# [9] = preincubation, 24 h detection time
# [10] = preincubation, caffeine in w/o formulation, 24 h
Structure (SMILES),"Average cumulative transport of 3H-caffeine [1, 5]","Enhancement Ratio for 3H-caffeine [1, 6]","Average cumulative transport of 3H-Vitamin E acetate [1, 7]","Enhancement Ratio for 3H-Vitamin E acetate [1, 8]","Effect on transport of Vitamin E acetate [1, 9]","Caffeine transport compared to the control without any penetration enhancer [1, 10]",Effect on transport of caffeine compared to the reference formulation without any enhancer [2],"Average cumulative transport of 3H-caffeine ([2]; human, 24 h, 5 %, pH 7.4)","Enhancement Ratio for 3H-caffeine ([2]; human, 24 h, 5 %, pH 7.4)",other results
"CCCCCCCCCCCC(=O)N[C@@H](C)C(=O)OCC [PE2, dodecyloyl alanine ethylester]",262929 dpm/cm^2,3.11,1814 dpm/cm^2,0.70,reduced the transport,approximately 3 times,–,–,–,–
"CO[C@H]1CO[C@H]2[C@@H]1OC[C@H]2OC [DMI, Dimethyl isosorbide]",203120 dpm/cm^2,2.40,2578 dpm/cm^2,1.01,only a slight penetration enhancing effect,around twice,–,–,–,"Average cumulative transport of 3H-caffeine ([2]; at 24 hours, 5% enhancer incorporated into w/o formulation, n = 4): 212.435 cpm/cm2; Enhancement Ratio for 3H-caffeine ([2]; at 24 hours, 5% enhancer incorporated, versus reference formulation 1 without enhancer, n = 4): 0.86; Effect on transport of caffeine compared to the reference formulation without any enhancer ([2]; enhancer incorporated into W/O formulation): slightly decreased transport"
"CCCCCCCC(=O)N[C@@H](C)C(=O)OCC [PE1, capryloyl alanine ethylester]",–,–,–,–,–,–,most effective permeation enhancer,342.593 cpm/cm2,1.38,"Penetration of the enhancer itself through the skin compared with DMI [3]: lesser degree than DMI; HSP distance to the stratum corneum compared with DMI and ethyldiethylenglycol [4]: smaller; Effect on transport of Vitamin E acetate [1]: only a slight penetration enhancing effect; Average cumulative transport of 3H-Vitamin E acetate ([1]; female, human, 24 h, pH 7.4): 2712 dpm/cm^2; Average cumulative transport of 3H-caffeine ([1]; female, human, 24 h, pH 7.4): 414024 dpm/cm^2; Caffeine transport compared to the control without any penetration enhancer ([1]; female, human, 24 h, pH 7.4): approximately 5 times; Enhancement Ratio for 3H-Vitamin E acetate ([1]; female, human, 24 h, pH 7.4): 1.06; Enhancement Ratio for 3H-caffeine ([1]; female, human, 24 h, pH 7.4): 4.89; Penetration of Vitamin E acetate with PE1 in comparison to PE2 ([1]; female, human, 24 h, pH 7.4): 1.5 fold"
"CCOCCOCCO [DGME, diethylene glycol mono ethyl ether]",–,–,–,–,–,–,slightly enhanced the transport,278.404 cpm/cm2,1.12,–
